Columns and labels:
human CYP2C9 = human CYP2C9 (Homo sapiens, UniProt P11712)
human CYP2D6 = human CYP2D6 (Homo sapiens, UniProt P10635)
human CYP1A2 = molecular target: T1, human CYP1A2 (Homo sapiens, UniProt P05177)
T1 sequence (P05177 1-516): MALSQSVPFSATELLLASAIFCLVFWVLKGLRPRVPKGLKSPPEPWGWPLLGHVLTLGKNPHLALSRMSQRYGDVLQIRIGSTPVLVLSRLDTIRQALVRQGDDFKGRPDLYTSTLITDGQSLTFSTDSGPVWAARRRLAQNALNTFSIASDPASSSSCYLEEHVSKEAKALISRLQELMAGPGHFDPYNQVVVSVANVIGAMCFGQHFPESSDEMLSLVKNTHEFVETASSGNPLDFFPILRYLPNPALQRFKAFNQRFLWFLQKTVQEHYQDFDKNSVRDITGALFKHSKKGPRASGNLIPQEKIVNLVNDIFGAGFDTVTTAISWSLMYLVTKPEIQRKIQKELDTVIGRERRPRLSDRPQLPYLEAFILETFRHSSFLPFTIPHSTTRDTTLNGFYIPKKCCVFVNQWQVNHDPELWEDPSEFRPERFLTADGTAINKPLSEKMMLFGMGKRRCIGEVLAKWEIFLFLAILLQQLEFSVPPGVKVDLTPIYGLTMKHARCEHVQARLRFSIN

human CYP2C19 = human CYP2C19 (Homo sapiens, UniProt P33261)
CYP3A4 = CYP3A4 (Homo sapiens, UniProt P08684)
Sequence of CYP3A4 (P08684 whole entry): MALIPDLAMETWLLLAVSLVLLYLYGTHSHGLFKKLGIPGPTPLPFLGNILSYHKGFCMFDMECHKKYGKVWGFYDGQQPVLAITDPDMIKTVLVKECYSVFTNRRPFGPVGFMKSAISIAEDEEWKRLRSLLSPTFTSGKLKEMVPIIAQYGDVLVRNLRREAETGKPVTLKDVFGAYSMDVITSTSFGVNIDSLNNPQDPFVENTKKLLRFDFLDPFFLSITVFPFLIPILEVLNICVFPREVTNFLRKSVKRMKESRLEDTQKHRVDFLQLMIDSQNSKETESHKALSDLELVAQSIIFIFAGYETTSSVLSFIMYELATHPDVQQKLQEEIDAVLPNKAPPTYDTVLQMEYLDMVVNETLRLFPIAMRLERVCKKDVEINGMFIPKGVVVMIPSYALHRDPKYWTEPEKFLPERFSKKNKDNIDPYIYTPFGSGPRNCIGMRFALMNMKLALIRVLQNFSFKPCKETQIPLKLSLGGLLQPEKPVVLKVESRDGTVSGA

Sequence of human CYP2C9 (P11712 whole entry): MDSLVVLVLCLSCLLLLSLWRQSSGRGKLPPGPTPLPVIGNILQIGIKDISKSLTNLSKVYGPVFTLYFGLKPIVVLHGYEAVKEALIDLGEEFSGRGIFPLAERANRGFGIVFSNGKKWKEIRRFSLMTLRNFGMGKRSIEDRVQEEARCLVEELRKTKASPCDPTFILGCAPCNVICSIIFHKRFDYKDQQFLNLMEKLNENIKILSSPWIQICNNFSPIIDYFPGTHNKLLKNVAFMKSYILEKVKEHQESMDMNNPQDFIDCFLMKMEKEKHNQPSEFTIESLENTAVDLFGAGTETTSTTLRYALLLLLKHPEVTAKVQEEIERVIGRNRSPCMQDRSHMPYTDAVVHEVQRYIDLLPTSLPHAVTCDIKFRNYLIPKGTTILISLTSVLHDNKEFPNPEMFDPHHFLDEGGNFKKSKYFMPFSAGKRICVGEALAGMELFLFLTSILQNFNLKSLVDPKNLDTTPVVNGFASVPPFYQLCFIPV
Sequence of human CYP2D6 (P10635 whole entry): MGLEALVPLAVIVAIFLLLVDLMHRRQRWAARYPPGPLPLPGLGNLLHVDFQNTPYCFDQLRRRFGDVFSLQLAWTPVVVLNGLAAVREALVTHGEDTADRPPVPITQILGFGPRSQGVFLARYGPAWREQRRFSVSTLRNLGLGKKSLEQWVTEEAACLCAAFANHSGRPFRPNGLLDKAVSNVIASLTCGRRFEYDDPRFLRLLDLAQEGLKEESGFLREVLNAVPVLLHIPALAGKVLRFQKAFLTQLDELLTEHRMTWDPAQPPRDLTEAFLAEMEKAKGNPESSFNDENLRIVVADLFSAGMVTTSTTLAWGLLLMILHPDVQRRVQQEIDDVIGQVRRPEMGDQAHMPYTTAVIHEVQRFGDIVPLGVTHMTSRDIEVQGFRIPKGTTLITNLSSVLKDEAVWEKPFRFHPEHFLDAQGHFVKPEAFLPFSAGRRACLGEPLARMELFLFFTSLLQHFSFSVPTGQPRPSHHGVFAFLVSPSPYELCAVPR
Sequence of human CYP2C19 (P33261 whole entry): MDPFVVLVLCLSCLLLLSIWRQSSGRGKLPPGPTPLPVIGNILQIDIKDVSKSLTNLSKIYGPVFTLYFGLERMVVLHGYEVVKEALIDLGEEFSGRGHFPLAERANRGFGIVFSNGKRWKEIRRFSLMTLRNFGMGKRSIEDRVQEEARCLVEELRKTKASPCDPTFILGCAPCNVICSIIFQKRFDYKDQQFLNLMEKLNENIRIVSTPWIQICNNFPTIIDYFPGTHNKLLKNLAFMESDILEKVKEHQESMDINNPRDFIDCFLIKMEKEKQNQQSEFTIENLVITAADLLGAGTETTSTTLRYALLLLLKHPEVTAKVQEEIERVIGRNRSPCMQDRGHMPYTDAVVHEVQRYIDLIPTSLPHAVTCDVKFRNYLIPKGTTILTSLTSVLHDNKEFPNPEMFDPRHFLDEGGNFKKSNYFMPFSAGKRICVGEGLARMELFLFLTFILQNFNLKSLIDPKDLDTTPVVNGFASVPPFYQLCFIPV

Row | SMILES | AC50 (human CYP2C9) | CYP2D6 AC50 (half-maximal activity concentration) (human CYP2D6) | CYP1A2 AC50 (half-maximal activity concentration) (human CYP1A2) | CYP2C19 AC50 (half-maximal activity concentration) (human CYP2C19) | AC50 (CYP3A4) | AC50 (human CYP1A2) | AC50 (human CYP2C19) | other results
1 | CCC(=O)O[C@@H]1C=C2CC[C@@H]3[C@H](CC[C@]4(C)[C@@H](OC(=O)CC)CC[C@@H]34)C2CC1 (some centres unmarked) [Bolandiol dipropionate] | 15.5 µM | Inactive | Inconclusive inhibitor | Inactive | 10.6 µM |  |  | 
2 | CCOP(=S)(OCC)Oc1cc(Cl)c(Br)cc1Cl [Bromophos-ethyl] |  |  |  |  |  |  |  | CYP2C9 Efficacy (in parenthesis) (human CYP2C9; human): 2.36 ± 0.42 (-102 ± 2) %; CYP2D6 IC50 (half-maximal inhibitory concentration) (human CYP2D6): Inactive; CYP1A2 Efficacy (in parenthesis) (human CYP1A2; human): 3.3 ± 0.22 (-98 ± 3) %; CYP2C19 Efficacy (in parenthesis) (human CYP2C19; human): 0.71 ± 0.08 (-121 ± 12) %; CYP3A4 Efficacy (in parenthesis) (CYP3A4): 1.97 ± 0.48 (-79 ± 2) %
3 | O=[N+]([O-])c1ccc(Nc2ccc(Nc3ccccc3)c(S(=O)(=O)[O-])c2)c([N+](=O)[O-])c1.[Na+] [C.I. Acid Orange 3] | 34.3 µM | Inactive | Inactive | Inconclusive inhibitor | 62.6 µM |  |  | 
4 | N.N.O=C([O-])C1(C(=O)[O-])CCC1.[Pt+2] [Carboplatin] | 9.46 µM |  |  |  | 31.3 µM | 15.6 µM | 17.7 µM | AC50 (human CYP2D6): 28.7 µM
5 | CC(=O)[O-].CC(=O)[O-].CC(=O)[O-].[Cr+3] [Chromium(III) acetate] | 96.3 µM | Inactive | Inactive | Inactive | 69.6 µM |  |  | 
6 | CCOC(=O)COc1ccc2c(C)c(CCN(CC)CC)c(=O)oc2c1Cl.Cl [Cloricromen hydrochloride] |  |  | Inconclusive inhibitor | Inactive | 16.8 µM |  |  | CYP2C9 AC50 (half-maximal activity concentration) (human CYP2C9): Inactive; AC50 (human CYP2D6): 18.2 µM
7 | O=C(O)C1(C(=O)Nc2ccc(Cl)cc2Cl)CC1 [Cyclanilide] | 18.7 µM |  |  | Inconclusive inhibitor | 55.5 µM | 60.6 µM |  | AC50 (human CYP2D6): 66.8 µM
8 | CC(=O)O[C@H]1CC[C@@]2(C)C(=CC[C@@H]3[C@@H]2CC[C@]2(C)C(C(C)=O)=CC[C@@H]32)C1 [Dehydropregnenolone acetate] |  | Inactive | Inactive | Inactive | 4.44 µM |  |  | CYP2C9 AC50 (half-maximal activity concentration) (human CYP2C9): Inactive
9 | COC(=O)CCCCCCCC(=O)OC [Dimethyl nonanedioate] |  | Inconclusive inhibitor |  | Inconclusive inhibitor | 58.1 µM | 40.1 µM |  | CYP2C9 AC50 (half-maximal activity concentration) (human CYP2C9): Inconclusive inhibitor
10 | O=C(Oc1ccccc1)c1cccc(C(=O)Oc2ccccc2)c1 [Diphenyl isophthalate] | 9.46 µM |  |  |  | 20.9 µM | 36.1 µM | 9.89 µM | AC50 (human CYP2D6): 36.5 µM
11 | CC(=O)O[C@@H]1C[C@H]2[C@@H]3CCc4cc(OC(=O)c5ccccc5)ccc4[C@H]3CC[C@]2(C)[C@H]1OC(C)=O [Estriol benzoate diacetate] | 22.8 µM | Inactive | Inactive | Inactive | 3.74 µM |  |  | 
12 | CCC(=O)Oc1ccc2c(c1)CC[C@@H]1[C@@H]2CC[C@@]2(C)[C@H]1C[C@@H](OC(=O)CC)[C@@H]2OC(=O)CC [Estriol tripropionate] | 19.8 µM | Inconclusive inhibitor | Inconclusive inhibitor |  | 4.92 µM |  | 29.9 µM | 
13 | CCOC(=O)C(C#N)=C(c1ccccc1)c1ccccc1 [Ethyl 2-cyano-3,3-diphenylacrylate] | 3.75 µM | Inconclusive inhibitor |  |  | 7.23 µM | 1.87 µM | 4.01 µM | 
14 | CCOC(=O)c1ccc(O)c(O)c1 [Ethyl protocatechuate] | 32.2 µM | Inactive |  | Inactive |  | 27.2 µM |  | CYP3A4 AC50 (half-maximal activity concentration) (CYP3A4): Inactive
15 | C[C@]12CC[C@H]3[C@@H](CCC4=CC(=O)CC[C@@]43C)[C@@H]1CC[C@@H]2C(=O)O [Etienic acid] | 21.2 µM | Inactive | Inactive | Inactive | 20.8 µM |  |  | 
16 | CN1CCC(Nc2ncc3ncnc(Nc4ccc(F)c(Cl)c4)c3n2)CC1.Cl.Cl [Falnidamol dihydrochloride] |  |  | Inactive | Inactive | 14.4 µM |  |  | CYP2C9 AC50 (half-maximal activity concentration) (human CYP2C9): Inactive; AC50 (human CYP2D6): 18.4 µM
17 | O=C(NCc1ncc(C(F)(F)F)cc1Cl)c1c(Cl)cccc1Cl [Fluopicolide] | 4.13 µM |  |  |  | 12.6 µM | 33 µM | 18.6 µM | AC50 (human CYP2D6): 6.57 µM
18 | C/C=C1/C(=O)C[C@H]2[C@@H]3CCC4=CC(=O)CC[C@]4(C)[C@H]3CC[C@]12C [Guggulsterone E] | 19.6 µM | Inactive | Inconclusive inhibitor |  | 1.82 µM |  | 4.67 µM | 
19 | C/C=C1\C(=O)C[C@H]2[C@@H]3CCC4=CC(=O)CC[C@]4(C)[C@H]3CC[C@]12C [Guggulsterone Z] | 24.8 µM | Inactive | Inactive |  | 3.8 µM |  | 6.83 µM | 
20 | O=C(OCCCCCCOC(=O)c1ccccc1)c1ccccc1 [Hexane-1,6-diyl dibenzoate] | 10.6 µM | Inactive |  |  | 24 µM | 3.43 µM | 83.2 µM | 
21 | Cl.Nc1c2c(nc3c1CCC3)CCCC2.O [Ipidacrine hydrochloride hydrate] |  |  | Inconclusive inhibitor | Inactive | 14.9 µM |  |  | CYP2C9 AC50 (half-maximal activity concentration) (human CYP2C9): Inactive; AC50 (human CYP2D6): 10.7 µM
22 | CC(C)COC(=O)C=Cc1ccccc1 [Isobutyl 3-phenylacrylate] | 44 µM | Inactive |  |  | 22.8 µM | 17 µM | 80 µM | 
23 | CCOC(=O)C1=NOC(c2ccccc2)(c2ccccc2)C1 [Isoxadifen-ethyl] | 8.36 µM | Inconclusive activator | Inconclusive inhibitor |  | 34.3 µM |  | 21.6 µM | 
24 | COCC(=O)N(c1c(C)cccc1C)[C@H](C)C(=O)OC [Metalaxyl-M] |  | Inactive |  | Inconclusive inhibitor | 47.7 µM | 47.7 µM |  | CYP2C9 AC50 (half-maximal activity concentration) (human CYP2C9): Inactive
25 | COC(=O)Cc1cccc2ccccc12 [Methyl 1-naphthaleneacetate] | 41.9 µM | Inactive |  |  | 27.5 µM | 18.8 µM | 63.5 µM | 

Source: PMC12155096 (International Journal of Molecular Sciences, 2025)
